According to the supplement of paper PMC10307832:

Columns and labels:
Assay in all cases: relative viability (nuclei count vs DMSO), 5 days (fraction); higher = more cells survive
[1] = compound: C[C@@H](N)c1ccc(C(=O)Nc2ccnc3[nH]ccc23)cc1 + O=C(CCCCCCC(=O)Nc1ccccc1)NO [Vorinostat] (partner 1 µM)
Summary of the method: (§1)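 Each reported value is a median over duplicate plates. It expresses relative viability: treated-well nuclei count divided by vehicle-well nuclei count. Lung cancer cell lines in 1536-well plates were dosed by pin tool a day after seeding, alone with one drug or with a fixed anchor-drug dose plus five library-drug doses (not always all listed) in √10 steps, and nuclei were counted after 5 days.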

[2] = compound: C1CNCCC1C2=CC(=NN2)C3=CC=NC=C3 + Cc1nc(NC(=O)N2CCC[C@H]2C(N)=O)sc1-c1ccnc(C(C)(C)C(F)(F)F)c1 [Alpelisib] (partner 2 µM)
Summary of the method: as §1

Tanzisertib + Dasatinib = compound: O[C@H]1CC[C@H](Nc2ncc3nc(Nc4c(F)cc(F)cc4F)n([C@H]4CCOC4)c3n2)CC1 [Tanzisertib] + Cc1nc(Nc2ncc(C(=O)Nc3c(C)cccc3Cl)s2)cc(N2CCN(CCO)CC2)n1 [Dasatinib] (partner 0.075 µM)
Summary of the method: as §1

[3] = compound: C[C@@H](N)c1ccc(C(=O)Nc2ccnc3[nH]ccc23)cc1 + CC(=O)Nc1cccc(-n2c(=O)n(C3CC3)c(=O)c3c(Nc4ccc(I)cc4F)n(C)c(=O)c(C)c32)c1 [Trametinib] (partner 0.02 µM)
Summary of the method: as §1

Cell Line	relative viability ([1]; first compound 0.04 µM)	relative viability ([1]; first compound 0.1265 µM)	relative viability ([1]; first compound 0.4 µM)	relative viability ([1]; first compound 1.265 µM)	relative viability ([1]; first compound 4 µM)	relative viability ([2]; first compound 0.08 µM)	relative viability ([2]; first compound 0.8 µM)	relative viability ([2]; first compound 2.53 µM)	relative viability ([2]; first compound 8 µM)	relative viability (Tanzisertib + Dasatinib; first compound 0.08 µM)	relative viability (Tanzisertib + Dasatinib; first compound 0.253 µM)	relative viability (Tanzisertib + Dasatinib; first compound 0.8 µM)	relative viability (Tanzisertib + Dasatinib; first compound 2.53 µM)	relative viability (Tanzisertib + Dasatinib; first compound 8 µM)	relative viability ([3]; first compound 0.04 µM)	relative viability ([3]; first compound 0.1265 µM)	relative viability ([3]; first compound 0.4 µM)	relative viability ([3]; first compound 1.265 µM)	relative viability ([3]; first compound 4 µM)
RERF-LC-KJ	0.737	0.736	0.838	0.652	0.74	0.803	0.709	0.963	0.89	0.95	0.814	0.912	0.685	0.744	0.902	0.972	0.971	0.96	0.873
NCI-H661	0.859	0.802	0.845	0.826	0.886	0.879	0.647	0.799	0.733	1.01	0.867	0.971	0.785	0.868	0.48	0.595	0.571	0.475	0.494
HCC-366	0.385	0.306	0.486	0.181	0.398	0.561	0.233	0.426	0.378	0.81	0.606	0.629	0.62	0.542	0.345	0.332	0.388	0.399	0.375
SK-LU-1	0.776	0.767	0.696	0.671	0.522	1.08	1.06	1.05	0.942	0.212	0.165	0.18	0.148	0.165	0.422	0.506	0.625	0.299	0.473
A-427	0.77	0.851	0.81	0.746	0.772	1.05	1.04	1.07	1.06	0.778	0.684	0.65	0.646	0.808	0.88	0.876	0.953	0.73	0.662
SW 1573	0.652	0.669	0.638	0.428	0.592	0.722	0.625	0.774	0.755	0.595	0.662	0.46	0.552	0.513	0.767	0.615	0.598	0.56	0.529
NCI-H322M	1.21	1.04	1.11	1.05	1.39	1.39	0.7	0.933	0.761	0.243	0.248	0.275	0.249	0.262	0.625	0.61	0.701	0.617	0.684
LK-2	0.198	0.275	0.222	0.17	0.302	1.09	1.11	1.21	1.24	0.281	0.287	0.318	0.28	0.207	1.03	0.733	0.694	0.939	0.933
NCI-H2023	0.645	0.621	0.863	–	0.819	0.539	0.5	0.573	0.613	0.677	0.616	0.536	0.606	0.497	0.607	0.619	0.657	–	0.586
NCI-H596	0.596	0.517	0.583	0.654	0.582	0.508	0.488	0.526	0.532	0.673	0.614	0.541	0.53	0.459	0.922	0.826	0.906	0.752	0.759
SK-MES-1	1.04	1.05	1.11	1.2	1.17	0.961	0.688	0.903	0.885	0.39	0.35	0.337	0.32	0.212	0.607	0.523	0.458	0.488	0.401
NCI-H1793	0.894	0.905	0.991	–	1.01	0.659	0.569	0.783	0.739	0.417	0.367	0.405	0.388	0.423	0.46	0.442	0.452	–	0.61
NCI-H2405	–	1.09	1.02	0.699	0.404	0.792	0.62	0.875	0.686	0.228	0.225	0.195	0.227	0.188	–	0.64	0.418	0.377	0.299
LCLC-103H	0.714	0.634	0.787	0.466	0.608	1.05	0.966	1.05	1	0.496	0.466	0.427	0.402	0.468	0.715	0.618	0.647	0.616	0.634
NCI-H460	0.86	0.73	0.771	0.949	0.702	0.381	0.343	0.593	0.62	0.595	0.595	0.489	0.474	0.303	0.217	0.165	0.243	0.0564	0.178
NCI-H1755	0.672	0.737	0.75	0.811	0.826	0.938	0.837	0.906	0.863	0.408	0.46	0.488	0.464	0.333	0.768	0.752	0.761	0.707	0.644
NCI-H358	0.692	0.781	0.784	0.642	0.614	0.588	0.831	0.839	0.845	0.185	0.159	0.164	0.151	0.131	0.157	0.133	0.138	0.121	0.139
